Assay results from patent publication US20250084056A1, “SUBSTITUTED OXOISOINDOLINYL PIPERIDINE-2,6-DIONE COMPOUNDS” (BRISTOL-MYERS SQUIBB COMPANY, priority 2023, published 2025).

How the values were obtained:
Format in all cases: cell-based
[1] = target: GSPT1 (Homo sapiens, UniProt P15170+Q96SW2); test: GSPT1 Cellular Degradation Assay (DF15-GSPT1-ePL); set-up: expressed in transfected cells; settings: DF15-GSPT1-ePL cells, 20 hours
How it was run: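 Human DF15 cells co-expressing a GSPT1–ePL fusion were treated with compound in RPMI 1640/10% FBS for 20 h at 37 °C. GSPT1 level was read by enzyme-fragment-complementation luminescence after 60 min with detection reagent. The reference degrader at […] defined 75% response; DC50 and Dmax were reported.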

[2] = target: Cyclin E1 (Homo sapiens, UniProt P24864+Q96SW2); test: Cyclin E1 Cellular Degradation Assay (MSD); set-up: endogenous in cells; host or cells: OVCAR3; settings: for DC50 / Dmax: Cyclin E1 cellular degradation; for Dmax: maximum degradation; for Ratio of GSPT1 DC50/Cyclin E1 DC50: selectivity for degradation of Cyclin E1 over GSPT1
How it was run: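 OVCAR3 cells treated with compound for 24 h at 37 °C, lysed, and cyclin E1 measured by MSD sandwich immunoassay (rabbit capture, mouse detection anti-CCNE1). Reference degrader at […] defined 110% response; DC50 and Dmax derived from response.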

[3] = test system: Phospho-Rb (Ser807/811); test: Phospho-Retinoblastoma (pRB) Cellular Assay; settings: Homo sapiens, OVCAR-3, NIH OVCAR3 cells, 24 hours; for IC50: concentration giving 50% response; for Emax: maximum response, reference compound at 10 μM = 100%, read-out: pRB Ymax
How it was run: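 OVCAR3 cells seeded overnight, then dosed with serial dilutions for 24 h at 37° C. Lysed with kit mix plus phosphatase inhibitor, ≥4 h at room temperature, read on EnVision; 100% response set by reference compound at 10 μM, giving IC50 and Ymax.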

Chain of Cyclin E1 (P24864 whole entry): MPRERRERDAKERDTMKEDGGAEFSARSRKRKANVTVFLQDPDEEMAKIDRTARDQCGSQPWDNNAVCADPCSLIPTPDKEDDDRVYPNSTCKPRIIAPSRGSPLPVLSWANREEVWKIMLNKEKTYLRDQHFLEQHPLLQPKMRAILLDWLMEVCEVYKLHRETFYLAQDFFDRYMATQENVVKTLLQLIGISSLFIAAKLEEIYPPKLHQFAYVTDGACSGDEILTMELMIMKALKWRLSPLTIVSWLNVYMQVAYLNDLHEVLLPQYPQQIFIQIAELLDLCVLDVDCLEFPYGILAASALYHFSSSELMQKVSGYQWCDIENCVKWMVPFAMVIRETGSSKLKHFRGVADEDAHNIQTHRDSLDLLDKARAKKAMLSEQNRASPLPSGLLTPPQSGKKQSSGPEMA
Chain of Cyclin E1 (Q96SW2 whole entry): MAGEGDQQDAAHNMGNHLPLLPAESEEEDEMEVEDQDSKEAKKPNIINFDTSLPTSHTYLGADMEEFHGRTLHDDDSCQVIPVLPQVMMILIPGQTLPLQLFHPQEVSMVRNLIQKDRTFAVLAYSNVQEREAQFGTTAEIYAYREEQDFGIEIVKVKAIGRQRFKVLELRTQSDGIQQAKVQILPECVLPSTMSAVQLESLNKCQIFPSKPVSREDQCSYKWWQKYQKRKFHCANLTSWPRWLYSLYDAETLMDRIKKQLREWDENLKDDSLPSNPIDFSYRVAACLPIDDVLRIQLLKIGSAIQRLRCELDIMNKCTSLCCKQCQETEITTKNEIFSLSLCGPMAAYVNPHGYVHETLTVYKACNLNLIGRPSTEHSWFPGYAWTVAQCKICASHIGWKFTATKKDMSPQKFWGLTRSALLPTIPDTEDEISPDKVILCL
Chain of Cyclin E1 (Q16531 whole entry partner): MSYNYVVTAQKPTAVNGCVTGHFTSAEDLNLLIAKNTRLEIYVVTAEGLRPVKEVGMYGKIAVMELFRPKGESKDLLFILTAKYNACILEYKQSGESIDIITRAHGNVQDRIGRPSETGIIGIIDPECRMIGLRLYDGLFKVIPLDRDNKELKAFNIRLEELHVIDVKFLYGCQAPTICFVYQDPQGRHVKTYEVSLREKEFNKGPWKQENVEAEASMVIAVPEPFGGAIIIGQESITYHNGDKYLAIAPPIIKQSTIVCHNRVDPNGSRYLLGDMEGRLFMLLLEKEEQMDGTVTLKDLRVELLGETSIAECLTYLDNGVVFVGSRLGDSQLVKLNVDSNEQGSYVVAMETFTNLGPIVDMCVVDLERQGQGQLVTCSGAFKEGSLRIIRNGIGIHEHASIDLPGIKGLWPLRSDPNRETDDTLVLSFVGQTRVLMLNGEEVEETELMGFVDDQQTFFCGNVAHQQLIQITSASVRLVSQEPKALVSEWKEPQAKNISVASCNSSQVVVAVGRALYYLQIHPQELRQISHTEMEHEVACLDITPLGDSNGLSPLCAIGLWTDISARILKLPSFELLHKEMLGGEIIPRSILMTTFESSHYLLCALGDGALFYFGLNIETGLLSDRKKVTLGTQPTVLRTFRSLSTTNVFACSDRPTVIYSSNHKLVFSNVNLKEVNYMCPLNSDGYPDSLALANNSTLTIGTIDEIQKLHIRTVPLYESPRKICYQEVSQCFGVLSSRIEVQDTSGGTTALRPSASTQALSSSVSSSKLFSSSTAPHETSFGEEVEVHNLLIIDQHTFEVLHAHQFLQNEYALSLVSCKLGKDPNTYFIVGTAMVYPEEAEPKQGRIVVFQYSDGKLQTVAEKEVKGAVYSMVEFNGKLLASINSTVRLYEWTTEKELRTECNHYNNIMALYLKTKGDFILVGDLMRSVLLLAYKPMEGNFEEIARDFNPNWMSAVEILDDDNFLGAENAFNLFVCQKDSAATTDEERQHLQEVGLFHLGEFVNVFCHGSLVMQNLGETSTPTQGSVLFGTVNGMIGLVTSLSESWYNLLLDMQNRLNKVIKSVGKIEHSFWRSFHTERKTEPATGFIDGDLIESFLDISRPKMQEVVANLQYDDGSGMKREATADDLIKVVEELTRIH
Chain of GSPT1 (P15170 whole entry, the tested form may be a part): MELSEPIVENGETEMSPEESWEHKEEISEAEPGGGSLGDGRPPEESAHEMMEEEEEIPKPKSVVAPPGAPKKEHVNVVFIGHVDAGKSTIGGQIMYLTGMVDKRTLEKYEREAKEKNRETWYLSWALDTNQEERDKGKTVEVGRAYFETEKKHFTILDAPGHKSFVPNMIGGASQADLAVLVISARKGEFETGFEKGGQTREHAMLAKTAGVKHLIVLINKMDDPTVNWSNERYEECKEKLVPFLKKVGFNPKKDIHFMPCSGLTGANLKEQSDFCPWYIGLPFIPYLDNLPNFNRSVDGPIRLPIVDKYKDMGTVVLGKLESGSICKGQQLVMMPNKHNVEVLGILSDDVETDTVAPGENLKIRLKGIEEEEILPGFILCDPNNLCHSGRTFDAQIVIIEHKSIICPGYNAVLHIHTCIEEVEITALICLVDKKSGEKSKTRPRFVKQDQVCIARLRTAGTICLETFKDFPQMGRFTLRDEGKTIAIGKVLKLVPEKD
Chain of GSPT1 (Q96SW2 whole entry, the tested form may be a part): as the sequence (Q96SW2 whole entry) above
Chain of GSPT1 (Q16531 whole entry partner, the tested form may be a part): as the sequence (Q16531 whole entry partner) above

Row | Compound | DC50 [1] [nM] | Dmax [1] [%] | DC50 [2] [nM] | Dmax [2] [%] | Ratio of GSPT1 DC50/Cyclin E1 DC50 [2] | IC50 [3] [nM] | Emax [3] [%]
1 | COc1c(COC(=O)Nc2ccc(Oc3cc(F)c(F)c(F)c3)cc2Cl)ccc2c1C(=O)N(C1CCC(=O)NC1=O)C2 (centres unmarked) [Example 25, [2-(2,6-dioxopiperidin-3-yl)-4-methoxy-3-oxo-2,3-dihydro-1H-isoindol-5-yl]methyl N-[2-chloro-4-(3,4,5-trifluorophenoxy)phenyl]carbamate] | > 14000 | 37 | 184 | 107 | >76 | 187 | 96
2 | O=C1CCC(N2Cc3ccc(COC(=O)Nc4ccc(Oc5ccccc5F)cc4)c(Oc4ccccc4)c3C2=O)C(=O)N1 (centres unmarked) [Example 65, [2-(2,6-dioxopiperidin-3-yl)-3-oxo-4-phenoxy-2,3-dihydro-1H-isoindol-5-yl]methyl N-[4-(2-fluorophenoxy)phenyl]carbamate] | > 14000 | 0 | 164 | 101 | >85 | 59 | 127
3 | COc1c(COC(=O)Nc2ccc(N(C)c3cccc(F)c3)cc2)ccc2c1C(=O)N(C1CCC(=O)NC1=O)C2 (centres unmarked) [Example 8, [2-(2,6-dioxopiperidin-3-yl)-4-methoxy-3-oxo-2,3-dihydro-1H-isoindol-5-yl]methyl N-{4-[(3-fluorophenyl)(methyl)amino]phenyl}carbamate] | > 14000 | 15 | 353 | 104 | >40 | 1230 | 99
4 | COc1c(COC(=O)Nc2ccc(Oc3ccc(F)c(F)c3)cc2F)ccc2c1C(=O)N(C1CCC(=O)NC1=O)C2 (centres unmarked) [Example 23, [2-(2,6-dioxopiperidin-3-yl)-4-methoxy-3-oxo-2,3-dihydro-1H-isoindol-5-yl]methyl N-[4-(3,4-difluorophenoxy)-2-fluorophenyl]carbamate] | > 14000 | 27 | 71 | 105 | >196 | 158 | 97
5 | COc1c(COC(=O)Nc2ccc(Oc3ccc(F)cc3C)cc2C)ccc2c1C(=O)N(C1CCC(=O)NC1=O)C2 (centres unmarked) [Example 76, [2-(2,6-dioxopiperidin-3-yl)-4-methoxy-3-oxo-2,3-dihydro-1H-isoindol-5-yl]methyl N-[4-(4-fluoro-2-methylphenoxy)-2-methylphenyl]carbamate] | > 14000 | 33 | 267 | 111 | >52 | 104 | 122
6 | COc1c(COC(=O)Nc2ccc(Oc3ccc(F)cc3)cc2C)ccc2c1C(=O)N(C1CCC(=O)NC1=O)C2 (centres unmarked) [Example 51, [2-(2,6-dioxopiperidin-3-yl)-4-methoxy-3-oxo-2,3-dihydro-1H-isoindol-5-yl]methyl N-[4-(4-fluorophenoxy)-2-methylphenyl]carbamate] | > 14000 | 16 | 363 | 106 | >39 | 188 | 109
7 | COc1c(COC(=O)Nc2ccc(Oc3cc(F)c(F)c(F)c3)cc2F)ccc2c1C(=O)N(C1CCC(=O)NC1=O)C2 (centres unmarked) [Example 15, [2-(2,6-dioxopiperidin-3-yl)-4-methoxy-3-oxo-2,3-dihydro-1H-isoindol-5-yl]methyl N-[2-fluoro-4-(3,4,5-trifluorophenoxy)phenyl]carbamate] | > 14000 | 48 | 35 | 109 | >395 | 127 | 109
8 | COc1c(COC(=O)Nc2ccc(C(C)(C)c3ccccc3)cc2)ccc2c1C(=O)N(C1CCC(=O)NC1=O)C2 (centres unmarked) [Example 41, [2-(2,6-dioxopiperidin-3-yl)-4-methoxy-3-oxo-2,3-dihydro-1H-isoindol-5-yl]methyl N-[4-(2-phenylpropan-2-yl)phenyl]carbamate] | > 14000 | 13 | 336 | 92 | >42 | 248 | 100
9 | O=C1CCC(N2Cc3ccc(COC(=O)Nc4ccc(Oc5cc(F)cc(F)c5)cc4F)c(OC4CCOCC4)c3C2=O)C(=O)N1 (centres unmarked) [Example 140, [2-(2,6-dioxopiperidin-3-yl)-4-(oxan-4-yloxy)-3-oxo-2,3-dihydro-1H-isoindol-5-yl]methyl N-[4-(3,5-difluorophenoxy)-2-fluorophenyl]carbamate] | > 14000 | 0 | 30 | 105 | >474 | 16 | 132

More lines, main results first:

Row | DC50 [1] [nM] | Dmax [1] [%] | DC50 [2] [nM] | Dmax [2] [%] | Ratio of GSPT1 DC50/Cyclin E1 DC50 [2] | IC50 [3] [nM] | Compound | Emax [3] [%]
10 | > 14000 | 27 | 241 | 105 | >58 | 234 | COc1c(COC(=O)Nc2ccc(Oc3ccc(Cl)c(F)c3)cc2)ccc2c1C(=O)N(C1CCC(=O)NC1=O)C2 (centres unmarked) [Example 71, [2-(2,6-dioxopiperidin-3-yl)-4-methoxy-3-oxo-2,3-dihydro-1H-isoindol-5-yl]methyl N-[4-(4-chloro-3-fluorophenoxy)phenyl]carbamate] | 97
11 | > 14000 | 6 | 13 | 111 | >1,042 | 8 | O=C1CCC(N2Cc3ccc(COC(=O)Nc4ccc(Oc5ccc(F)c(F)c5)cc4)c(O[C@H]4CC[C@@H](O)CC4)c3C2=O)C(=O)N1 (stereo partly drawn) [Example 167, [2-(2,6-dioxopiperidin-3-yl)-3-oxo-4-{[(1S,4S)-4-hydroxycyclohexyl]oxy}-2,3-dihydro-1H-isoindol-5-yl]methyl N-[4-(3,4-difluorophenoxy)phenyl]carbamate] | 148
12 | > 14000 | 8 | 67 | 105 | >210 | 27 | O=C1CCC(N2Cc3ccc(COC(=O)Nc4ccc(Oc5ccc(F)cc5F)cc4)c(OC4CCOCC4)c3C2=O)C(=O)N1 (centres unmarked) [Example 139, [2-(2,6-dioxopiperidin-3-yl)-4-(oxan-4-yloxy)-3-oxo-2,3-dihydro-1H-isoindol-5-yl]methyl N-[4-(2,4-difluorophenoxy)phenyl]carbamate] | 170
13 | > 14000 | 16 | 110 | 105 | >127 | 131 | O=C1CCC(N2Cc3ccc(COC(=O)Nc4ccc(Oc5ccc(F)c(F)c5)cc4)c(OCC(=O)N4CCOCC4)c3C2=O)C(=O)N1 (centres unmarked) [Example 178, [2-(2,6-dioxopiperidin-3-yl)-4-[2-(morpholin-4-yl)-2-oxoethoxy]-3-oxo-2,3-dihydro-1H-isoindol-5-yl]methyl N-[4-(3,4-difluorophenoxy)phenyl]carbamate] | 126
14 | > 14000 | 10 | 62 | 102 | >225 | 37 | CC(C)(O)COc1c(COC(=O)Nc2ccc(Oc3ccc(F)c(F)c3)cc2F)ccc2c1C(=O)N(C1CCC(=O)NC1=O)C2 (centres unmarked) [Example 161, [2-(2,6-dioxopiperidin-3-yl)-4-(2-hydroxy-2-methylpropoxy)-3-oxo-2,3-dihydro-1H-isoindol-5-yl]methyl N-[4-(3,4-difluorophenoxy)-2-fluorophenyl]carbamate] | 129
